Read-outs that look alike come from different tables or passages of the source.

Common to all, as to format: in vivo
The subject of one experiment is Nocardia sp. Briefly: Control of Nocardia sp disease in tobacco (N-Nt). Conditions: 1 μM spraying every 24 hours for one week, water control 58. Summed up:
(§1)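 Plants were inoculated first, then sprayed with compound at 1 μM every 24 hours for one week, with water-sprayed plants as controls and fifty plants per treatment. Read-outs were plant mortality rate for Nocardia, percentage of leaves with symptoms for Alternaria, and lesion diameter for Botrytis.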

Experiment [1] relates to Botrytis cinerea. The experiment is described as follows: Control of Botrytis cinerea disease in Arabidopsis (Bc-At). Conditions: 1 μM spraying every 24 hours for one week, water control 8.7. An outline of the steps:
as §1

The next experiment relates to Pratylenchus coffeae. Briefly: Nematode control, nodules per plant: Pratylenchus coffeae. Particulars: 1 μM foliar application every 5 days, evaluation 35 days after, control 42. Summed up: (§2)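 Each compound was dissolved in ethanol, then diluted with water to 1 μM. Only the leaves were sprayed, with applications repeated every 5 days on ten plants per treatment. After 35 days, nodules per plant were quantified.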

The test system of experiment [2] is Botrytis cinerea. The experiment is described as follows: Control of Botrytis cinerea disease in tobacco (Bc-Nt). Particulars: 1 μM spraying every 24 hours for one week, water control 6.7. Summed up: as §1
For another experiment, the system named is Radopholus similis. The experiment is described as follows: Nematode control, nodules per plant: Radopholus similis. Conditions: 1 μM foliar application every 5 days, evaluation 35 days after, control 45. Summed up: as §2
Another experiment relates to Meloidogyne incognita. The experiment is described as follows: Nematode control, nodules per plant: Meloidogyne incognita. Conditions: 1 μM foliar application every 5 days, evaluation 35 days after, control 34. An outline of the steps:
as §2

Experiment [3] deals with Botrytis cinerea. Briefly: Control of Botrytis cinerea disease in tomato (Bc-SI). Conditions: 1 μM spraying every 24 hours for one week, water control 7.4. An outline of the steps:
as §1

For experiment [4], the system named is Candidatus 'Liberibacter asiaticus'. Conditions: spraying every 15 days, 12 months after treatment, Citrus sinensis with HLB.
The subject of the next experiment is Alternaria solani. Briefly: Control of Alternaria solani disease in tomato (As-SI). Particulars: 1 μM spraying every 24 hours for one week, water control 68. Summed up:
as §1

In experiment [5] the test system is Rhizoctonia solani. Briefly: Control of Rhizoctonia solani disease in tomato (Rs-SI). Conditions: 1 μM spraying every 24 hours for one week, water control 96.
The subject of experiment [6] is Rhizoctonia solani. Briefly: Control of Rhizoctonia solani disease in tobacco (Rs-Nt). Particulars: 1 μM spraying every 24 hours for one week, water control 87.
A further experiment deals with Phytophthora parasitica. The experiment is described as follows: Control of Phytophthora parasitica disease in tobacco (Pp-Nt). Particulars: 1 μM spraying every 24 hours for one week, water control 91.

As for `Cc1nc(N2CCN(n3cccc3)CC2)ncc1C(=O)N1CC2CC(O)C(O)CC2C1` (stereo not shown) [IIIL, 2-({4-methyl-2-[4-(1H-pyrrol-1-yl)piperazin-1-yl]pyrimidin-5-yl}carbonyl)-octahydro-1H-isoindole-5,6-diol], in the experiment with Nocardia sp, the “N-Nt: percentage of mortality” value is 0%. In addition, the “Bc-At: mean of the diameter of the lesion” value (shortened to “Bc-At: mean”) in the experiment with Botrytis cinerea [1] is 1.5 mm. Moreover, the “Pc: number of nodules per plant” value in the experiment with Pratylenchus coffeae was found to be 0. Moreover, the “Bc-Nt: mean of the diameter of the lesion” value (“Bc-Nt: mean” for short) in the experiment with Botrytis cinerea [2] stood at 1.5 mm. In addition, the “Rs: number of nodules per plant” value in the experiment with Radopholus similis was 0. The “Mi: number of nodules per plant” value in the experiment with Meloidogyne incognita is listed as 0. In the experiment on Botrytis cinerea [3], the “Bc-SI: mean of the diameter of the lesion” value (“Bc-SI: mean” below) turned out to be 2.5 mm. Besides, the “Titers of the bacterium” value is on record as 524 copies per reaction in [4] (0.001 μM); 0 copies per reaction in experiment [4] (0.01 μM); 6 copies per reaction in experiment [4] (1 μM); 54 copies per reaction in [4] (5 μM); 5840 copies per reaction in experiment [4] (10 μM). Moreover, the “As-SI: percentage of leaves with the disease symptoms” value (shortened to “As-SI: percentage of leaves”) in the experiment on Alternaria solani is given as 7%. In addition, the “Rs-SI: percentage of mortality” value with Rhizoctonia solani [5] came to 0%. Further, the “Rs-Nt: percentage of mortality” value in the experiment on Rhizoctonia solani [6] is listed as 0%. In addition, in the experiment with Phytophthora parasitica, the “Pp-Nt: percentage of mortality” value stood at 0%.
As for `Cc1c2c(oc(=O)c1CC(=O)NCC(O)CO)C=CC1C(C3CCCCC3)=COC21` (stereo not shown) [IIJ, 2-{5-cyclohexyl-13-methyl-11-oxo-3,10-dioxatricyclo[7.4.0.0^{2,6}]trideca-1(9),4,7,12-tetraen-12-yl)-N-(2,3-dihydroxypropyl)acetamide], in the experiment with Nocardia sp, the “N-Nt: percentage of mortality” value is 2%. Besides, the “Bc-At: mean” value in the experiment on Botrytis cinerea [1] is listed as 0.7 mm. Further, in the experiment on Pratylenchus coffeae, the “Pc: number of nodules per plant” value came out at 2. In addition, the “Bc-Nt: mean” value in the experiment with Botrytis cinerea [2] is 0.9 mm. Further, the “Rs: number of nodules per plant” value in the experiment on Radopholus similis came out at 12. For the same molecule, the “Mi: number of nodules per plant” value with Meloidogyne incognita worked out at 4. For the same molecule, in the experiment on Botrytis cinerea [3], the “Bc-SI: mean” value was determined as 1.2 mm. The “Titers of the bacterium” value was 435 copies per reaction in experiment [4] (0.001 μM); 1 copies per reaction in experiment [4] (0.01 μM); 1 copies per reaction in [4] (1 μM); 45 copies per reaction in [4] (5 μM); 6541 copies per reaction in [4] (10 μM). Besides, the “As-SI: percentage of leaves” value with Alternaria solani turned out to be 3%. Besides, in the experiment with Rhizoctonia solani [5], the “Rs-SI: percentage of mortality” value came out at 2%. Also, the “Rs-Nt: percentage of mortality” value in the experiment with Rhizoctonia solani [6] is on record as 4%. Also, the “Pp-Nt: percentage of mortality” value with Phytophthora parasitica amounted to 1%.
In the case of `Cc1c2c(oc(=O)c1CC(=O)NCC(O)CO)C=CC1C(C3CCCC3)=COC21` (stereo not shown) [IIK, 2-{5-cyclopentyl-13-methyl-11-oxo-3,10-dioxatricyclo[7.4.0.0^{2,6}]trideca-1(9),4,7,12-tetraen-12-yl}-N-(2,3-dihydroxypropyl)acetamide], the “N-Nt: percentage of mortality” value in the experiment on Nocardia sp is on record as 1%. Besides, the “Bc-At: mean” value in the experiment with Botrytis cinerea [1] stood at 1.2 mm. Besides, the “Pc: number of nodules per plant” value with Pratylenchus coffeae came out at 14. Moreover, in the experiment on Botrytis cinerea [2], the “Bc-Nt: mean” value is reported as 0.3 mm. For the same molecule, the “Rs: number of nodules per plant” value in the experiment with Radopholus similis amounted to 0. Moreover, the “Mi: number of nodules per plant” value in the experiment with Meloidogyne incognita was 0. In addition, the “Bc-SI: mean” value with Botrytis cinerea [3] was found to be 0.8 mm. For the same molecule, the “Titers of the bacterium” value was determined as 578 copies per reaction in [4] (0.001 μM); 8 copies per reaction in experiment [4] (0.01 μM); 0 copies per reaction in experiment [4] (1 μM); 78 copies per reaction in experiment [4] (5 μM); 2365 copies per reaction in [4] (10 μM). The “As-SI: percentage of leaves” value in the experiment with Alternaria solani amounted to 8%. The “Rs-SI: percentage of mortality” value with Rhizoctonia solani [5] came to 2%. In addition, the “Rs-Nt: percentage of mortality” value with Rhizoctonia solani [6] was determined as 0%. Moreover, the “Pp-Nt: percentage of mortality” value in the experiment with Phytophthora parasitica is reported as 0%.
On to `Cc1c2c(oc(=O)c1CC(=O)NCC(O)CO)C=CC1C(c3ccc4ccccc4c3)=COC21` (stereo not shown) [IIL, N-(2,3-dihydroxypropyl)-2-[13-methyl-5-(naphthalen-2-yl)-11-oxo-3,10-dioxatricyclo[7.4.0.0^{2,6}]trideca-1(9),4,7,12-tetraen-12-yl]acetamide], for which the “N-Nt: percentage of mortality” value in the experiment on Nocardia sp came out at 0%. Moreover, the “Bc-At: mean” value with Botrytis cinerea [1] is 1.1 mm. The “Pc: number of nodules per plant” value in the experiment on Pratylenchus coffeae was determined as 0. Also, the “Bc-Nt: mean” value in the experiment with Botrytis cinerea [2] was 2.0 mm. For the same molecule, the “Rs: number of nodules per plant” value in the experiment with Radopholus similis turned out to be 0. Also, in the experiment on Meloidogyne incognita, the “Mi: number of nodules per plant” value is reported as 0. In addition, the “Bc-SI: mean” value with Botrytis cinerea [3] is on record as 1.6 mm. Besides, the “Titers of the bacterium” value in experiment [4] (0.001 μM) is listed as 635 copies per reaction; in experiment [4] (0.01 μM), 1 copies per reaction; in experiment [4] (1 μM) it was 0 copies per reaction; in experiment [4] (5 μM), 65 copies per reaction; in [4] (10 μM), 5478 copies per reaction. Besides, the “As-SI: percentage of leaves” value in the experiment on Alternaria solani was found to be 7%. The “Rs-SI: percentage of mortality” value in the experiment on Rhizoctonia solani [5] is listed as 0%. Moreover, in the experiment on Rhizoctonia solani [6], the “Rs-Nt: percentage of mortality” value turned out to be 0%. Further, the “Pp-Nt: percentage of mortality” value with Phytophthora parasitica was determined as 0%.
As for `Cc1c2c(oc(=O)c1CC(=O)NCC(O)CO)C=CC1C=COC21` (stereo not shown) [IIM, N-(2,3-dihydroxypropyl)-2-{13-methyl-11-oxo-3,10-dioxatricyclo[7.4.0.0^{2,6}]trideca-1(9),4,7,12-tetraen-12-yl}acetamide], in the experiment with Nocardia sp, the “N-Nt: percentage of mortality” value is reported as 0%. In the experiment with Botrytis cinerea [1], the “Bc-At: mean” value was found to be 0.5 mm. Besides, the “Pc: number of nodules per plant” value in the experiment with Pratylenchus coffeae is recorded as 0. For the same molecule, in the experiment with Botrytis cinerea [2], the “Bc-Nt: mean” value was 0.9 mm. Besides, the “Rs: number of nodules per plant” value in the experiment with Radopholus similis is recorded as 0. Further, the “Mi: number of nodules per plant” value with Meloidogyne incognita is on record as 0. In addition, the “Bc-SI: mean” value in the experiment on Botrytis cinerea [3] was 0.8 mm. Further, the “Titers of the bacterium” value was determined as 524 copies per reaction in [4] (0.001 μM); 0 copies per reaction in experiment [4] (0.01 μM); 0 copies per reaction in experiment [4] (1 μM); 54 copies per reaction in experiment [4] (5 μM); 8542 copies per reaction in experiment [4] (10 μM). In addition, the “As-SI: percentage of leaves” value in the experiment on Alternaria solani came to 5%. Moreover, the “Rs-SI: percentage of mortality” value with Rhizoctonia solani [5] is 1%. The “Rs-Nt: percentage of mortality” value with Rhizoctonia solani [6] amounted to 0%. Further, the “Pp-Nt: percentage of mortality” value in the experiment on Phytophthora parasitica is 0%.
For the molecule `Cc1c2c(oc(=O)c1CC(=O)NCC(O)CO)C=CC1C(n3cccc3)=COC21` (stereo not shown) [IIN, N-(2,3-dihydroxypropyl)-2-[13-methyl-11-oxo-5-(1H-pyrrol-1-yl)-3,10-dioxatricyclo[7.4.0.0^{2,6}]trideca-1(9),4,7,12-tetraen-12-yl]acetamide], in the experiment on Nocardia sp, the “N-Nt: percentage of mortality” value was determined as 0%. Moreover, the “Bc-At: mean” value in the experiment with Botrytis cinerea [1] is recorded as 1.5 mm. The “Pc: number of nodules per plant” value in the experiment with Pratylenchus coffeae is given as 0. Besides, the “Bc-Nt: mean” value with Botrytis cinerea [2] turned out to be 1.5 mm. In the experiment with Radopholus similis, the “Rs: number of nodules per plant” value was found to be 3. Further, in the experiment on Meloidogyne incognita, the “Mi: number of nodules per plant” value is on record as 0. The “Bc-SI: mean” value in the experiment with Botrytis cinerea [3] amounted to 2.5 mm. Besides, the “Titers of the bacterium” value is reported as 598 copies per reaction in experiment [4] (0.001 μM); 0 copies per reaction in experiment [4] (0.01 μM); 0 copies per reaction in experiment [4] (1 μM); 98 copies per reaction in experiment [4] (5 μM); 9654 copies per reaction in experiment [4] (10 μM). In the experiment on Alternaria solani, the “As-SI: percentage of leaves” value was 7%. In addition, the “Rs-SI: percentage of mortality” value with Rhizoctonia solani [5] is recorded as 1%. Further, the “Rs-Nt: percentage of mortality” value with Rhizoctonia solani [6] is on record as 0%. Besides, in the experiment with Phytophthora parasitica, the “Pp-Nt: percentage of mortality” value stood at 3%.
Regarding `Cc1c(CCC(=O)NCC(O)CO)c(=O)oc2cc3occ(C4CCCCC4)c3cc12` (stereo not shown) [IJ, 3-{6-cyclohexyl-4-methyl-2-oxo-2H-furo[3,2-g]chromen-3-yl}-N-(2,3-dihydroxypropyl)propanamide], the “N-Nt: percentage of mortality” value with Nocardia sp is given as 2%. In addition, in the experiment with Botrytis cinerea [1], the “Bc-At: mean” value turned out to be 1.5 mm. Moreover, in the experiment on Pratylenchus coffeae, the “Pc: number of nodules per plant” value stood at 24. Further, the “Bc-Nt: mean” value in the experiment on Botrytis cinerea [2] was found to be 1.5 mm. For the same molecule, the “Rs: number of nodules per plant” value in the experiment on Radopholus similis is 18. Further, the “Mi: number of nodules per plant” value with Meloidogyne incognita is reported as 4. In addition, the “Bc-SI: mean” value with Botrytis cinerea [3] is listed as 2.5 mm. Also, the “Titers of the bacterium” value worked out at 456 copies per reaction in experiment [4] (0.001 μM); 0 copies per reaction in experiment [4] (0.01 μM); 18 copies per reaction in [4] (1 μM); 46 copies per reaction in experiment [4] (5 μM); 5840 copies per reaction in [4] (10 μM). In addition, in the experiment on Alternaria solani, the “As-SI: percentage of leaves” value was determined as 3%. Also, the “Rs-SI: percentage of mortality” value with Rhizoctonia solani [5] is 2%. The “Rs-Nt: percentage of mortality” value in the experiment with Rhizoctonia solani [6] is 4%. For the same molecule, the “Pp-Nt: percentage of mortality” value in the experiment on Phytophthora parasitica is recorded as 1%.

For the origin of these results see US11013235B2 (priority 2015, dated 2021).
